# Patent publication US20050043515A1, “Tobacco-specific nitrosamine detection assays and reagents” (priority 2003, published 2005)
# Where two headings read alike, the source gives them in different places.
# How the values were obtained:
# [1] = system: monoclonal antibody 245J15; test: Competitive ELISA for total TSNAs using monoclonal antibody 245J15; assay type: binding, mice
# Method: (§1) Microtiter plates (Nunc, Maxisorp) were coated by adding 100 μl per well of goat anti mouse IgG Fc specific (Jackson Immunoresearch, West Grove, Pa.) at 2.5 micrograms per milliliter (μg/ml) in phosphate buffered saline (Sigma Chemical Co.) and allowing the solution to sit overnight. The next day, contents were discarded and unreacted sites on the plastic wells were blocked with 300 μl per well of PBT (1% Bovine Serum Albumen (Sigma Chemical Co.), 0.05% Tween 20 (Sigma Chemical Co.) in PBS) for one hour. Contents were again discarded and 100 μl was added per well of a 1/10,000 dilution of hybridoma culture supernatant of monoclonal antibody 245B5. Wells were then incubated one hour at room temperature. Contents of the wells were again discarded and wells washed three times with PBS with 0.05% Tween (PT). Aliquots containing 50 μl of test compounds diluted in PBT were added to the wells in duplicate, followed in less than five minutes by 50 μl of NNK conjugated to horseradish peroxidase (5 μg of horseradish peroxidase/ml). Wells were incubated for one hour at room temperature, after which they were washed six times with PT and excess liquid removed by tapping. A 100 μl aliquot of a peroxide/3,3′,5,5′-tetramethylbenzidine substrate/chromagen (Catalog # TMBUS, Moss Corporation, Pasadena, Md.) was added. Color was read at 650 nm after fifteen minutes in a microplate reader (SpectraMax Plus, Molecular Devices, Sunnyvale, Calif.). The presence of a TSNA reactive with monoclonal antibody 245B5 caused a decrease in the strength of the color signal.
# A total TSNA assay was developed for monoclonal antibody 245J15.
# Each analyte was obtained from the source identified in Example 3.
# (§2) The affinity of monoclonal antibodies 245B5 and 245J15 to the N-nitroso group on compounds was evaluated using the immunoassay of Example 3 and the immunoassay of Example 4. Parent compounds lacking nitroso groups but having secondary amine groups were run in the immunoassays as previously described. Identical immunoassays were also conducted for compounds that were identical with the parent compounds except that for the addition of the nitroso group to the secondary amine in the compounds. NNN, NAT, and NAB are all examples of TSNAs. N-nitrosopyrollidine may be found in tobacco smoke, but is not a TSNA.
# [2] = system: monoclonal antibody 245B5; test: Competitive ELISA for NNK using monoclonal antibody 245B5; assay type: binding, mice; details: for % Crossreactivity: NNK amount for 50% inhibition divided by test compound amount, x100
# Method: as §1
# TSNAs were purchased from Toronto Research Chemicals. […] The y-axis is B/Bo, which is the amount of color at 650 nm obtained in the presence of the compound divided by the amount of color obtained when no competing compound is present.
# as §2
# [3] = system: rabbit antisera raised against NNK oxime derivative conjugates; assay type: binding, New Zealand White Rabbits; details: one rabbit; for Crossreactivity at the 50% point: relative to NNK
# Method: NNK oxime derivatives were prepared and conjugated to KLH and BSA as described in Example 1. The conjugates were diluted in complete Freund's adjuvant to prepare a 1:1 solution of conjugate:adjuvant. New Zealand White Rabbits (6 to 12 months of age) were immunized by injection with the suspension. Rabbits received two booster injections of the same conjugate/adjuvant at one month and two months after initial injection. At three months time, point test bleeds were tested against microtiter plates coated with oxime-derivatized NNK prepared and conjugated to ovalbumen using procedures described in Example 1.
# All of these rabbits were used individually to produce competitive assays, as described in Example 3, with the exceptions that a 1:250,000 dilution of antisera in PBT was substituted for the supernatant and the microtiter plates were first coated with goat anti rabbit IgG (Catalog # 115-005-008, Jackson Immunoresearch, West Grove, Pa.) rather than goat anti mouse IgG. All other details were the same.
# [4] = Antibody 245J15, NNK amount for 50% inhibition divided by test compound amount, x100
# [5] = Antibody 245J15, read-out: 50% Inhibition at: M
# [6] = 0.5 B/Bo, read-out: 50% Inhibition at: M
# [7] = Table 3, parent compound vs N-nitroso derivative, read-out: 50% Inhibition at
# [8] = Table 4, Antibody 245J15, parent compound vs N-nitroso derivative, read-out: 50% Inhibition at
SMILES,50% Inhibition at: ppm ([1]; Antibody 245J15),"% Crossreactivity [1, 4]","IC50 [1, 5]",50% Inhibition at: Ppm ([2]; 0.5 B/Bo),"IC50 [2, 6]","IC50 [2, 7]","IC50 [1, 8]",other results
O=C(O)C1CCCCN1 (racemic) [DL-Pipecolinic Acid],13630.2 ppm,0%,,,,,,
CN1CCCCC1CO (centres unmarked) [1-Methyl-2-piperidinemethanol],781.4 ppm,0.008%,6000 µM,,,,,
CN1CCCC1CCO (centres unmarked) [1-Methyl-2-pyrrolidineethanol],1264.4 ppm,0.005%,9800 µM,,,,,
CN1CCC(O)C1 (centres unmarked) [1-Methyl-3-pyrrolidinol],92.7 ppm,0.065%,920 µM,,,,,
O=C1CCCN1 [2-Pyrrolidinone],2594 ppm,0.002%,30000 µM,,,,,
Cl.OC1CCCNC1 (centres unmarked) [3-Hydroxypiperidine hydrochloride],17492.7 ppm,0%,,,,,,
OC1CCNC1 (centres unmarked) [3-Pyrrolidinol],5373.9 ppm,0.001%,62000 µM,,,,,
Cl.OC1CCNCC1 [4-Hydroxypiperidine hydrochloride],12282.5 ppm,0%,89000 µM,,,,,
OC[C@H]1CCCN1 [(R)-(−)-2-Pyrrolidine-methanol],1898.1 ppm,0.003%,19000 µM,,,,,
OC[C@@H]1CCCN1 [(S)-(+)-2-Pyrrolidine-methanol],996.7 ppm,0.006%,9900 µM,,,,,
c1cncc([C@@H]2CCCCN2)c1 [Anabasine],214.9 ppm,0.028%,1300 µM,>200 Ppm,> 1000 µM,> 1000 µM,1300 µM,% Crossreactivity [2]: <0.0002%
C1=CCC(c2cccnc2)NC1 (centres unmarked) [Anatabine],8.3 ppm,0.7%,52 µM,311.06 Ppm,1900 µM,1900 µM,52 µM,% Crossreactivity [2]: 0.0004%
CCCCNCCCC [Dibutylamine],,,,,,> 50000 µM,> 50000 µM,
CN1CCCC[C@H]1c1cccnc1 [Methyl Anabasine],30.2 ppm,0.2%,180 µM,271.90 Ppm,1600 µM,,,% Crossreactivity [2]: 0.0005%
CCCCN(CCCC)N=O [N-Nitrosodibutylamine],,,,,,16000 µM,10000 µM,
O=NN1CCCC1 [N-Nitrosopyrrolidine],,,,,,3000 µM,5000 µM,
"O=NN1CCCC[C@H]1c1cccnc1 [NAB, N-nitrosoanabasine]",0.72 ppm,8.3%,3.8 µM,1.35 Ppm,7.1 µM,7.1 µM,3.8 µM,Crossreactivity at the 50% point [3]: 1.6%
"O=NN1CC=CC[C@H]1c1cccnc1 [NAT, N-nitrosoanatabine]",0.13 ppm,46.3%,0.68 µM,0.35 Ppm,1.8 µM,1.8 µM,0.68 µM,Crossreactivity at the 50% point [3]: 1.7%
"CN(N=O)C(CCC=O)c1cccnc1 (centres unmarked) [NNA, 4-(methylnitrosamino)4-(3-pyridyl)butanal]",0.56 ppm,10.8%,2.7 µM,18.00 Ppm,87 µM,,,% Crossreactivity [2]: 0.0075%
"CN(CCCC(O)c1cccnc1)N=O (centres unmarked) [NNAL, 4-(methylnitrosamino)-1-(3-pyridyl)-1-butanol]",0.05 ppm,129.6%,0.22 µM,0.06923 Ppm,0.33 µM,,,
"CN(CCCC(=O)c1cccnc1)N=O [NNK, 4-(methylnitrosamino)-1-(3-pyridyl)-1-butanone]",0.06 ppm,100%,0.29 µM,0.00135 Ppm,0.0065 µM,,,"% Crossreactivity [2]: 100.00%; sensitivity at the 50% inhibition point ([3]; 1:250,000 dilution of antisera): 0.1 μg NNK per ml"
CN1CCCC1c1cccnc1 (centres unmarked) [Nicotine],80.9 ppm,0.074%,500 µM,16.88 Ppm,100 µM,,,"Crossreactivity at the 50% point [3]: 0.024%; % Crossreactivity ([1]; Antibody 245J15, NNK amount for 50% inhibition divided by test compound amount, x100, listed as Nicotine (Acros)): 0.034%; 50% Inhibition at: ppm ([1]; Antibody 245J15, listed as Nicotine (Acros)): 178.9 ppm; IC50 ([1]; Antibody 245J15, listed as Nicotine (Acros), read-out: 50% Inhibition at: M): 1100 µM"
O=C(O)C1CCCNC1 (centres unmarked) [Nipecotic Acid],24193.5 ppm,,,,,,,
c1cncc([C@@H]2CCCN2)c1 [Nornicotine],223.1 ppm,0.027%,1500 µM,>200 Ppm,> 1000 µM,> 1000 µM,1500 µM,% Crossreactivity [2]: <0.0002%
C1CCNCC1 [Piperidine],1300.3 ppm,0.005%,15000 µM,,,,,
c1ccncc1 [Pyridine],,,,,,,,50% Inhibition at: ppm [1]: 946.9 ppm; % Crossreactivity [1]: 0.006%; IC50 ([1]; read-out: 50% Inhibition at: M): 12000 µM
C1CCNC1 [Pyrrolidine],,,,,,20000 µM,20000 µM,
